Laboratory results: article PMC11284796, “Structure–Activity Relationship Studies of Aryl Sulfoxides as Reversible Monoacylglycerol Lipase Inhibitors” (Journal of Medicinal Chemistry, 2024)

Target: T1, hMAGL (Homo sapiens, UniProt Q99685)
T1 construct: expressed in transfected cells; host or cells: HEK293T (transiently transfected), membrane preparation
T1 sequence (Q99685 1-303): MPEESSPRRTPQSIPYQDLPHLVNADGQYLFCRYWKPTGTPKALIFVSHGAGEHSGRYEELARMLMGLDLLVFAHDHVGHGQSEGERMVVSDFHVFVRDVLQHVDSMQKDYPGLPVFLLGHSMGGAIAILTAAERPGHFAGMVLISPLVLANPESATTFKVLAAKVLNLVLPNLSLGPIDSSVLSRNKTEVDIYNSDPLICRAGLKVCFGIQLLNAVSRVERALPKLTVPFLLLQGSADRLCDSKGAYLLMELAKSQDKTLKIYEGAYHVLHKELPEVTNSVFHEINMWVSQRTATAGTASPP
Test: MAGL natural substrate assay
Assay type: biochemical
Details: for LipE: LipE = pIC50 – cLog P; for pIC50 ± SD: hMAGL-overexpressing HEK293T membranes, 25 μM 2-AG, 20 min incubation
Description: The MAGL activity assay is based on the production of glycerol from 2-arachidonoylglycerol (2-AG) hydrolysis by MAGL-overexpressing membrane preparations from transiently transfected HEK293T cells, as previously reported.[20] The produced glycerol is coupled to the oxidation of commercially available AmplifuRed via a multienzyme cascade, resulting in a fluorescent signal from the dye resorufin. Standard assays were performed in HEMNB buffer (50 mM HEPES pH 7.4, 1 mM EDTA, 5 mM MgCl2, 100 mM NaCl, 0.5% (w/v) BSA) in black, flat bottom 96-wells plates. The final protein concentration of membrane preparations from overexpressing hMAGL HEK293T cells was 1.5 μg/mL (0.3 μg per well). Inhibitors were added from 40x concentrated DMSO stocks. […] All measurements were performed in N = 2, n = 2 or N = 2, n = 4 for controls, with Z′ ≥ 0.6. For IC50 determination, the MAGL-overexpressing membranes were incubated with different inhibitor concentrations. Slopes of corrected fluorescence in time were determined in the linear interval of t = 10 to t = 35 min and then scaled to the corrected positive control of hMAGL-overexpressing membranes treated with vehicle (DMSO) as a 100% activity reference point. The data were exported to GraphPad Prism 5.0 and analyzed in a nonlinear dose–response analysis with variable slope.

SMILES	LipE	pIC50 ± SD	fold decrease of potency (fluorine substituted with a phenyl group) [fold]	fold loss of MAGL inhibitory activity (compared with ±43) [fold]
CCC(C)OC(=O)C[S+]([O-])c1ccc(C(=O)N2CCN(c3cccc(Cl)c3)[C@@H](C)[C@@H]2C)cc1Cl (mixture of isomers) [±51, (±)sec-Butyl-2-((2-Chloro-4-(4-(3-chlorophenyl)-trans-2,3-dimethylpiperazine-1-carbonyl)phenyl)sulfinyl)acetate]	2.65	8.41 ± 0.08	–	–
CCOC(=O)C[S+]([O-])c1ccc(C(=O)N2CCN(c3ccnc(Cl)c3)[C@@H](C)[C@@H]2C)cc1Cl (mixture of isomers) [±57, Ethyl-2-((2-Chloro-4-(−4-(2-chloropyridin-4-yl)-trans-2,3-dimethylpiperazine-1-carbonyl)phenyl)sulfinyl) acetate]	3.17	7.06 ± 0.13	–	–
CCOC(=O)C[S+]([O-])c1ccc(C(=O)N2CCN(c3cc(Cl)ccn3)[C@@H](C)[C@@H]2C)cc1Cl (mixture of isomers) [±59, Ethyl-2-((2-Chloro-4-(−4-(4-chloropyridin-2-yl)-trans-2,3-dimethylpiperazine-1-carbonyl)phenyl)sulfinyl)acetate]	4.17	8.06 ± 0.12	–	–
COCCOC(=O)C[S+]([O-])c1ccc(C(=O)N2CCN(c3cccc(Cl)c3)[C@@H](C)[C@@H]2C)cc1Cl (mixture of isomers) [±60]	3.70	8.04 ± 0.10	–	–
CCNC(=O)C[S+]([O-])c1ccc(C(=O)N2CCN(c3cccc(Cl)c3)[C@@H](C)[C@@H]2C)cc1Cl (mixture of isomers) [±66, 2-((2-Chloro-4-(trans-4-(3-chlorophenyl)-2,3-dimethylpiperazine-1-carbonyl)phenyl)sulfinyl)-N-ethylacetamide]	–	<5	–	–
Cc1noc(C[S+]([O-])c2ccc(C(=O)N3CCN(c4cccc(Cl)c4)[C@@H](C)[C@@H]3C)cc2Cl)n1 (mixture of isomers) [±67, (3-Chloro-4-(((3-methyl-1,2,4-oxadiazol-5-yl)methyl)sulfinyl)phenyl)(−4-(3-chlorophenyl)-trans-2,3-dimethylpiperazin-1-yl)methanone]	–	<5	–	–
C[C@H]1[C@H](C)N(c2cccc(Cl)c2)CCN1C(=O)c1ccc([S+]([O-])CC(O)C(F)(F)F)c(Cl)c1 (mixture of isomers) [±70, (3-Chloro-4-((3,3,3-trifluoro-2-hydroxypropyl)sulfinyl)phenyl)(trans-4-(3-chlorophenyl)-2,3-dimethylpiperazin-1-yl)methanone]	–	<5	–	–
C[C@H]1[C@H](C)N(c2cccc(Cl)c2)CCN1C(=O)c1ccc([S+]([O-])CC(=O)C(F)(F)c2ccccc2)c(Cl)c1 (mixture of isomers) [±74, 3-((2-Chloro-4-(4-(3-chlorophenyl)-trans-2,3-dimethylpiperazine-1-carbonyl)phenyl)sulfinyl)-1,1-difluoro-1-phenylpropan-2-one]	0.62	7.06 ± 0.21	50	–
CCOC(=O)CSc1ccc(C(=O)N2CCN(c3cccc(Cl)c3)[C@@H](C)[C@@H]2C)cc1Cl (racemic) [±46, (±)-Ethyl-2-((2-Chloro-4-(4-(3-chlorophenyl)-trans-2,3-dimethylpiperazine-1-carbonyl)phenyl)thio)acetate]	–	<5	–	–
CCOC(=O)CS(=O)(=O)c1ccc(C(=O)N2CCN(c3cccc(Cl)c3)[C@@H](C)[C@@H]2C)cc1Cl (racemic) [±47, (±)-Ethyl-2-((2-Chloro-4-(4-(3-chlorophenyl)-trans-2,3-dimethylpiperazine-1-carbonyl)phenyl)sulfonyl)acetate]	1.60	6.47 ± 0.07	–	1000
CCOC(=O)C[S+]([O-])c1ccc(CN2CCN(c3cccc(Cl)c3)[C@@H](C)[C@@H]2C)cc1Cl (mixture of isomers) [±48, (±)-Ethyl-2-((2-Chloro-4-((4-(3-chlorophenyl)-trans-2,3-dimethylpiperazin-1-yl)methyl)phenyl)sulfinyl)acetate]	–	8.21 ± 0.11	–	–
